Experimental findings from patent publication US11345659B2, “Pipecolic esters for inhibition of the proteasome” (THE BOARD OF REGENTS OF THE UNIVERSY OF TEXAS SYSTEM, priority 2018, dated 2022) are described below.

For data set [1], the target named is T1, 20 S proteasome (Homo sapiens, UniProt P25787+P25789).
T1 construct: purified from erythrocytes; purchased Enzo Life Sciences, Inc. (Farmingdale, N.Y.); host or cells: human erythrocytes
Briefly: PGPH peptidase activity of tRpt5-activated 20 S core. It counts as biochemical. The following applies: core activated with tRpt5. As to the method:
Human housekeeping 20 S and 26 S and complexes purified from erythrocytes were purchased from Enzo Life Sciences, Inc. (Farmingdale, N.Y.). The 1 mg/ml stock 20 S proteasome was diluted to 0.2 mg/ml working solution in 50 mM Tris/HCl, pH 8 containing 20% glycerol (dilution buffer). For the 26 S proteasome stock, the dilution buffer was supplemented with 2 mM ATP, 1 mM MgCl2, and 1 mM DTT (dithiothreitol). […] of fluorescence emitted by 7-amino-4-methylcoumarin ([…]; Bachem Bioscience Inc., Philadelphia, Pa.), used at concentration of 100 μM. Free AMC (Sigma-Aldrich, St. Louis, Mo.) was used as the standard. The Rpt5 C-terminal peptide was synthesized (standard solid-phase peptide chemistry) and purified to at least 98% purity by GenScript (Piscataway, N.J.). The Rpt5 peptide and the peptide substrate were dissolved in dimethylsulfoxide (DMSO) and such stock solutions were stored at −20° C. […]
The reaction was carried out in 96-well plates, in 100 μL of reaction mixture, for 1 hour at 37° C. […] The reaction rates were calculated from a linear segment of kinetic curves constructed from measurements in 1-minutes intervals (Fluoroskan Ascent plate reader; Thermo Fisher Scientific Inc., Waltham, Mass.). Reaction rates were calculated using a linear fit executed by Slope Analyzer and Enzyme Kinetics applications launched within Origin Pro 2017 (OriginLab). […]

Data set [2] deals with T2, latent core 20 S proteasome (Homo sapiens, UniProt P25787+P25789).
T2 construct: purified from erythrocytes; purchased Enzo Life Sciences, Inc. (Farmingdale, N.Y.); host or cells: human erythrocytes
Description: Competition of compound 3 with tRpt6 peptide, ChT-L activity of latent core. It counts as biochemical. The following applies: 1 μM compound 3, 2 μM tRpt6. An excerpt: According to the most recent model of the 26 S proteasome dynamic cycle, Rpt6 succeeds the Hb-Y—X containing anchor subunits Rpt5, Rpt3, and Rpt2 in docking into the α face pockets and promoting an intermediate conformation between latent and activated (open gate) proteasomes (Dong et al. ([…]) Nature 565(7737): 49-55). […] For comparison, no competition between tRpt5, expected to occupy the α5/α6 pocket, and compound 3 was detected.
Referring to FIG. 4, the C-terminal peptide derived from Rpt6 subunit compromises inhibition of the ChT-L activity of the latent core by the compound 3; however, only when added to the proteasome prior to the inhibitor. […] 1 μM compound 3 and 2 μM tRpt6 were tested. Mean±SD; n=3 to 6.

For data set [3], the system named is human cultured androgen-resistant prostate cancer PC3 cells. Description: Scratch test with PC3 cells. It is filed as cell-based. The following applies: 1 μM, 24 hrs, 0.5 mm gap. Here is the method: The “scratch test” was performed with human cultured androgen-resistant prostate cancer PC3 cells. The surface of growing confluent cells was scratched to produce a 0.5 mm wide gap. The scratch was photographed at time 0 hrs. and the cells were cultured with vehicle (DMSO; 1:1000) or with 1 μM of compound 3. After 24 hrs the scratch in control culture was almost entirely closed.

The target in data set [4] is 20 S proteasome and 19 S regulatory particle (Homo sapiens, UniProt P25787+P25789). Briefly: In vitro reconstruction of 26 S: activation of 20 S core by 19 S regulatory particle. It is filed as biochemical. The following applies: pretreatment 10 minutes RT with 1 μM, 2:1 19 S:20 S, with ATP. Here is the method: The 26 S proteasome can be reconstructed in vitro from the purified core (20 S) and regulatory particle (19 S) protein complexes. Activation of the core is considered a measure of effectiveness of the reconstruction. […] The reconstruction was carried out in the presence of ATP (1 mM ATP, 0.5 mM MgCl2, 0.5 mM dithiothreitol), as required for the optimal conditions of the 20 S-19 S binding. Averages and SD from three independent experiments are presented.

Data set [5] has as its target immunoproteasomes (Homo sapiens, UniProt P25787+P25789). Briefly: Activity of housekeeping and immunoproteasomes activated with Rpt5-derived peptide. It is filed as biochemical. An excerpt:
Immuno and housekeeping forms are serving distinct physiological functions. The clinically used competitive inhibitors do target them with a similar efficacy; however such outcome is not obvious with allosteric inhibitors such as compound 3. Referring to FIG. 11, the relative activities of the proteasome forms are shown, activated with the Rpt5-derived peptide and treated with compound 3.

Data set [6] in a line: Pilot toxicity study in mice.
Description: Six injections were performed on Mondays, Wednesdays, and Fridays for two weeks, and the weight and overall condition of the mice were monitored.
The mark [7] stands for this setting: 10 and 30 mg/kg intravenously, six injections in two weeks.

Structures are written as SMILES.

For `COc1cc(CCCOC(=O)[C@@H]2CCCCN2C(=O)OCc2ccccc2)cc(OC)c1OC` [Compound 3, 1-benzyl 2-(3-(3,4,5-trimethoxyphenyl)propyl) (S)-piperidine-1,2-dicarboxylate], in data set [1], the 50% inhibitory concentration (IC50) – broadly, the midpoint of a concentration-inhibition curve – is 2600 nM. Further, in data set [2], the “inhibition of ChT-L of the core when tRpt6 is added before the compound” value is “significantly attenuated inhibition of the core” and the “inhibition of the core when the compound is preincubated before addition of tRpt6” value was “No attenuation was observed”. Also, the “closure of scratch (migration and proliferation)” value in data set [3] is reported as “the scratch was still visible”. Also, the “activation of 20 S core by 19 S” value in data set [4] is “strongly attenuated the activation, by about two-thirds”. Besides, the “inhibition of housekeeping versus immunoproteasomes” value in data set [5] was “inhibits both housekeeping and immunoproteasomes with similar efficacy”. Moreover, in data set [6] (setting [7]), the “animals' behavior” value is reported as “No differences in the animals' behavior were noted” and the “body weight versus control mice” value is “did not differ significantly”. Also, the toxicity for mice entry in data set [6] (highest tested dose 30 mg/kg) was “non-toxic for mice up to a highest tested dose of 30 mg/kg”.
